Experimental data from US20070161691A1, “Modified-protein formation inhibitor” (TOKAI UNIVERSITY, priority 2003, published 2007).

Legend:
[1] = Vitamin B6 (PLP; pyridoxal phosphate) trapping; type: biochemical; conditions: 500 μM compound, 50 μM PLP, PBS
Method: To a solution of vitamin B6, the compound of this invention is added, and after a certain period of time, an amount of vitamin B6 remained is determined.
4-(5-phenyltetrazol-1-ylmethyl)-morpholine (Compound 1), 5-methyl-1-(5-phenyltetrazol-1-ylmethyl)-3a,6a-dihydro-1H-pyrrolo[3,4-d][1,2,3]triazol-4,6-dione (Compound 2) and (5-phenyltetrazol-1-yl)methanol (Compound 3) as well as aminoguanidine as the positive control were each dissolved in DMSO in a designed concentration to make a sample solution. DMSO itself was used as the negative control. In addition, pyridoxal phosphate (PLP) was dissolved in purified-water to make a designed concentration. PBS was added to each of the test compound, the positive control and the negative control, to make a final concentration of 500 μM. The PLP solution as above prepared was added to each of the resultant solution to make a final concentration of 50 μM for preparation of the PLP reaction solution. Using HPLC, the amount of PLP in the PLP reaction solution was determined after 0.1 and 10 hours, from which the PLP trapping amount of each test compound was ascertained.
The analysis of PLP using HPLC was carried out by separation with reverse-phase C18 column (4.6×250 mm, 5 μm; Waters) and by using a fluorescence detector (RF-10A; Shimazu Seisakusho; excitation wavelength, 300 nm and fluorescence wavelength, 400 nm). In the mobile phase, the flow rate was 0.6 mL/min and the concentration of buffer B was varied from 0% to 3% in 25 minutes (buffer A: 0.10% trifluoroacetic acid; buffer B: 80% acetonitrile containing 0.08% trifluoroacetic acid).

pentosidine formation = test: AGEs (pentosidine) formation inhibiting effect in plasma from dialysis patients; type: biochemical, human; conditions: for Pentosidine formation: 5 mM; for pentosidine formation suppression: plasma from the patients with dialysis
Method: Before dialysis, blood samples were obtained from non-diabetic volunteer dialysis patients with renal failure, and fresh heparinized plasma samples were prepared therefrom Pooled plasma obtained from several patients (n=3˜5) was served to the test. 4-(5-phenyltetrazol-1-ylmethyl)-morpholine (Compound 1), 5-methyl-1-(5-phenyltetrazol-1-ylmethyl)-3a,6a-dihydro-1H-pyrrolo[3,4-d][1,2,3]triazole-4,6-dione (Compound 2) or (5-phenyltetrazol-1-yl)methanol (Compound 3) adjusted to a designed concentration ([…]), in DMSO solution (100 μl), was added to the pooled plasma (900 μl) and incubated at 37° C. for 7 days in the presence of air. Then, the amount of pentosidine was measured to estimate the suppressive effect on the glycation of protein.
Measurement of the amount of pentosidine was made as follows: to each incubated sample (50 μL) was added an equal volume of 10% trichloroacetic acid, followed by centrifugation at 5000 g for 5 minutes; after removal of the supernatant, the pellet was washed by 5% trichloroacetic acid (300 μL); the pellet was dried under reduced pressure and then subjected to hydrolysis in 6N HCI solution (100 μL) at 110° C. under nitrogen atmosphere for 16 hours; to the hydrolysate, 5N NaOH (100 μL) and 0.5 M phosphate buffer (pH 7.4) (200 μL) were added, followed by filtration through a porefilter with a pore size of 0.5 μm and dilution with PBS. The concentration of free pentosidine was determined by reversed-phase HPLC using a fluorescence detector (RF-10A, Shimazu Seisakusho) (Miyata, T. et al.: Proc. Natl. Acad. Sci. USA, 93, 2353-2358, 1996). The effluent was monitored at 335/385 nm of excitation/emission wavelength. Synthetic pentosidine was used as the standard. The detection limit of pentosidine was 0.1 pmol/mg protein.
The inhibiting effect was estimated by comparing with positive control (aminoguanidine and pyridoxamine (Sigma)) reacted in the same manner as 4-(5-phenyltetrazol-1-yl-methyl)-morpholine (Compound 1), 5-methyl-1-(5-phenyltetrazol-1-ylmethyl)-3a,6a-dihydro-1H-pyrrolo[3,4-d][1,2,3]triazole-4,6-dione (Compound 2) and (5-phenyltetrazol-1-yl)methanol (Compound 3).

[2] = Suppressing effect on the nitration of tyrosine with peroxynitrite; type: biochemical; conditions: in comparison with pyridoxamine as positive control; 0.1, 0.5, 2.5 and 5 mM
Method: According to the method of Pannala, A.S. et al. (Free Radic. Biol. Med., 24:594-606, 1998), the examination was carried out. Namely, tyrosine (final concentration: 100 μM), the test compound (final concentration: 0.1, 0.5, 2.5 and 5 mM) and peroxynitrite (Dojin Kagaku) (final concentration: 500 μM) were dissolved in 200 mM of phosphate buffer (pH7.4) (liquid volume 500 μL) and incubated at 37° C. for 15 minutes. After incubation, the nitrotyrosine formation was determined with HPLC in the following manner: after a predifined time, the reaction mixture (20 μL) was injected onto HPLC, separation was made with C18 column (4.6×250 mm, 5 μm: Waters) and the detection was effected using a ultraviolet detector (RF-10A: Shimazu Seisakusho) at a wavelength of 280 nm. In the mobile phase, the flow rate was 0.6 mL/min and the concentration of buffer B was varied from 5.0% to 30% in 30 minutes (buffer A: 0.10% trifluoroacetic acid; buffer B: 80% acetonitrile containing 0.08% trifluoroacetic acid). 4-Hydroxy-3-nitrobenzoic acid (100 μM) was used as the internal standard.

[3] = Suppressive effect on the hydroxylation of phenylalanine with hydroxy radical; type: biochemical; conditions: in comparison with pyridoxamine as positive control; 0.1, 0.5, 2.5 mM
Method: Phenylalanine (final concentration: 1 mM), test compound (final concentration: 0.1, 0.5, 2.5 mM), hydrogen peroxide (final concentration: 5 mM) and cupric sulfate (final concentration: 0.1 mM) were dissolved in 200 mM of phosphate buffer (pH7.4) (total volume 500 μL), followed by incubation at 37° C. for 4 hours. Then, DTPA (final concent-ration: 1 mM) and 260 unit of catalase were added thereto to interrupt the reaction. The amounts of o-tyrosine and m-tyrosine formed were determined by HPLC in the following manner: after a designed period of time, the reaction mixture was diluted to 100 folds; 20 μL of the dilution was injected onto HPLC, separation was made with C18 column (4.6×250 mm, 5 μm; Nomura Kagaku) and detection was effected using a fluorescence detector (RF-10A: Shimazu Seisakusho) under the condition of an excitation wavelength of 275 nm and a fluorescence wavelength of 305 nm. In the mobile phase, the flow rate was 0.6mL/min and the concentration of buffer B was varied from 6.5% to 10% in 25 minutes (buffer A: 0.10% trifluoroacetic acid; buffer B: 80% acetonitrile containing 0.08% trifluoroacetic acid).

[4] = Acute toxicity examination, single oral administration to mouse; conditions: male, in vivo, ICR mice, single oral administration
Method: (§1) For 4-(5-phenyltetrazol-1-ylmethyl)-morpholine (compound 1) and (5-phenyltetrazol-1-yl) methanol (compound 3), acute toxicity test was carried out using mice. Each compounds were suspended in carboxymethyl cellulose in given concentration to prepare sample for oral administration. Then single oral administration was done to mouse. The dose is 100, 250, 500, 1000 and 2000 mg/kg. Five ICR mice (male , 8 weeks aged, closed colony) were used in each group. The test material was administrated to determine LD50 value.

ICR mice = test: as above; conditions: in vivo, po
Method: as §1

[5] = Absorbability examination, oral administration to rat; type: in vivo; conditions: 50 mg/kg oral
Method: For 4-(5-phenyltetrazol-1-yl methyl)-morpholine (compound 1) and (5-phenyltetrazol-1-yl)methanol (compound 3), their sorbability were examined. Each compounds are suspended in carboxymethyl cellulose in given concentration to prepare sample for oral administration. Then each samples were administered in the ratio of 50 mg/kg to rat using sonde. Five Wister rats (male, 8 weeks aged, closed colony) were used every one group. At one hour, 2 hours, 6 hours and 24 hours after the administration of compound, blood was obtained. The obtained blood samples were immediately cetrifuged at 3000 rpm for 15 minutes to obtain the blood plasma and the concentration of the compound in the specimen was quantitated by HPLC. Briefly, to 100 μL of obtained blood plasma was added to 200 μL of acetonitrile, centrifuged at 12000 rpm for 10 minutes to obtain supernatant, deproteinized and served to HPLC. The measuring condition of HPLC was selected from suitable condition for each compounds to separate and quantify. For example, in case of 4-(5-phenyltetrazol-1-yl methyl)-morpholine (compound 1), separated with reverse-phase C18 column (4.6×250 mm, 5 μm: Waters), and then detected using ultraviolet detector (RF-10A: Shimazu Seisakusho) at 240 nm of wavelength to quantify. In mobile phase, the flow rate is 0.8 mL/min and solvent is water: acetonitrile.

[6] = plasma from dialysis patients, 37° C., 7 days, DMSO negative control 2.960

SMILES | PLP trapping [1] | Pentosidine formation (pentosidine formation; [6]) [nmol/mL] | pentosidine formation suppression (pentosidine formation) | Pentosidine formation (pentosidine formation; same manner as Table 2) [nmol/mL] | also measured
N=C(N)NN [Aminoguanidine, aminoguanidine, reference compound] | remarkable PLP trapping | 2.604 | – | – | –
CN1C(=O)C2N=NN(Cn3nnnc3-c3ccccc3)C2C1=O (stereo not drawn) [Compound 2, 5-methyl-1-(5-phenyltetrazol-1-ylmethyl)-3a,6a-dihydro-1H-pyrrolo[3,4-d][1,2,3]triazole-4,6-dione] | none | 0.320 | suppressed remarkably | – | nitrotyrosine formation, suppression [2]: suppressed remarkably; hydroxylation of phenylalanine with hydroxy radical, suppression [3]: suppressed remarkably
OCn1nnnc1-c1ccccc1 [Compound 3, (5-phenyltetrazol-1-yl)-methanol] | none | 0.026 | suppressed remarkably | – | LD50 [4]: > 2000 mg/kg; toxicity (ICR mice): lower toxicity; sorbability (plasma concentration after oral administration) [5]: good sorbability; nitrotyrosine formation, suppression [2]: suppressed remarkably; hydroxylation of phenylalanine with hydroxy radical, suppression [3]: suppressed remarkably
c1ccc(-c2nnnn2CN2CCNCC2)cc1 [Compound 4, 1-(5-phenyltetrazol-1-ylmethyl)-piperazine] | – | – | suppressed remarkably | 0.234 | –
CN1CCN(Cn2nnnc2-c2ccccc2)CC1 [Compound 5, 1-methyl-4-(5-phenyltetrazol-1-ylmethyl)-piperazine] | – | – | suppressed remarkably | 0.201 | –
c1ccc(-c2nnnn2CN2CCSCC2)cc1 [Compound 6, 4-(5-phenyltetrazol-1-ylmethyl)-thiomorpholine] | – | – | suppressed remarkably | 0.149 | –
c1ccc(-c2nnnn2CN2CCN(Cn3nnnc3-c3ccccc3)CC2)cc1 [Compound 7, 1,4-bis-(5-phenyltetrazol-1-ylmethyl)-piperazine] | – | – | suppressed remarkably | 0.103 | –
Cc1ncc(CO)c(CN)c1O [Pyridoxamine, pyridoxamine, reference compound] | – | 2.280 | – | – | –
